Source: patent publication US20210401859A1, “METHODS OF TREATING CANCER IN BIOMARKER-IDENTIFIED PATIENTS WITH NON-COVALENT INHIBITORS OF CYCLIN-DEPENDENT KINASE 7 (CDK7)” (Syros Pharmaceuticals, Inc., priority 2018, published 2021)

Experiments:
[1] = test system: ST390 (modeling pancreatic ductal adenocarcinoma (PDAC)); experiment: TGI in PDAC PDX model ST390; type: in vivo, NOD/SCID mice; conditions: 6 mg/kg QD, PO, vehicle ~1,250 mm^3
Description: In the PDAC model, Compound 101 was orally administered to tumor-bearing NOD/SCID mice at 6 mg/kg QD. […] The % regression was calculated as: (Mean TV Compound 101 @ EOT)/(Mean TV Compound 101 @ Day 0)×100. The same calculations were used for end of study (day 42).

[2] = test system: BR5010, LU5178, OV15398 PDX models; experiment: TGI in PDX models BR5010 (TNBC), LU5178 (SCLC), OV15398 (HGSOC); type: in vivo, NOD/SCID mice; conditions: TNBC 10 mg/kg QD or 5 mg/kg BID, HGSOC 3 mg/kg BID, PO 21 days, 21 days follow-up
[3] = test system: 12 PDX models (SCLC, TNBC, HGSOC); experiment: TGI and tolerability in 12 PDX models of SCLC, TNBC and HGSOC; type: in vivo
[4] = Plasma exposure on repeated daily dosing in mice; type: in vivo; conditions: repeated daily dosing at therapeutic doses in mice (1-6 mg/kg)
[5] = test system: ovarian and breast tumor xenografts; experiment: Daily oral dosing in ovarian and breast tumor xenografts; type: in vivo

## CC1(C)CC[C@H](Nc2ncc(C(F)(F)F)c(-c3c[nH]c4c(P(C)(C)=O)c(C#N)ccc34)n2)CN1 [Compound 101, (S)-7-(dimethylphosphoryl)-3-(2-((6,6-dimethylpiperidin-3-yl)amino)-5-(trifluoromethyl)pyrimidin-4-yl)-1H-indole-6-carbonitrile]
[1]
  tumor volume at day 21: about 250 mm^3
[2]
  TGI (in words): deep and sustained TGI, including regressions
[3]; 6 or 10 mg/kg QD or 3 or 5 mg/kg BID PO, all 12 models
  TGI at the end of the 21-day dosing period, all models: at least 50%
[3]; all once-daily doses tested, tumor-bearing mice
  body weight loss / tolerability: no evident body weight loss
[3]; subset 7/12 models, 21 days after treatment discontinuation
  tumor regrowth after treatment discontinuation: no evidence of tumor regrowth
[3]; subset of models (58%, 7/12), TGI or regression
  TGI of deep responses in a subset of models: > 95%
[4]
  plasma exposures: dose proportional without accumulation
[5]; correlated with TGI
  pharmacodynamic responses in xenograft tumor tissue: rapid (4 hours) and sustained (24 hours) dose-dependent pharmacodynamic responses
[5]; daily oral dosing
  TGI (in words): dose-dependent TGI
  lowest dose at which tumor regression was observed: one-fifth of MTD
